Laboratory results taken from patent US20150352108A1, “AMINO-PYRIMIDINE COMPOUNDS AS INHIBITORS OF TBK1 AND/OR IKK EPSILON” (Alzheimer's Institute of America, priority 2009, published 2015).

What was measured:
[1] = molecular target: T1, IKKε (Homo sapiens, UniProt Q14164); assay: In-vitro IKKε kinase assay ([γ33]ATP filter-plate); format: biochemical; details: text bins; read-out: IC50 for inhibition of the kinase activity of IKKε
T1 construct: His-tag; made in house; host or cells: Sf9 insect cells
T1 sequence (Q14164 1-716): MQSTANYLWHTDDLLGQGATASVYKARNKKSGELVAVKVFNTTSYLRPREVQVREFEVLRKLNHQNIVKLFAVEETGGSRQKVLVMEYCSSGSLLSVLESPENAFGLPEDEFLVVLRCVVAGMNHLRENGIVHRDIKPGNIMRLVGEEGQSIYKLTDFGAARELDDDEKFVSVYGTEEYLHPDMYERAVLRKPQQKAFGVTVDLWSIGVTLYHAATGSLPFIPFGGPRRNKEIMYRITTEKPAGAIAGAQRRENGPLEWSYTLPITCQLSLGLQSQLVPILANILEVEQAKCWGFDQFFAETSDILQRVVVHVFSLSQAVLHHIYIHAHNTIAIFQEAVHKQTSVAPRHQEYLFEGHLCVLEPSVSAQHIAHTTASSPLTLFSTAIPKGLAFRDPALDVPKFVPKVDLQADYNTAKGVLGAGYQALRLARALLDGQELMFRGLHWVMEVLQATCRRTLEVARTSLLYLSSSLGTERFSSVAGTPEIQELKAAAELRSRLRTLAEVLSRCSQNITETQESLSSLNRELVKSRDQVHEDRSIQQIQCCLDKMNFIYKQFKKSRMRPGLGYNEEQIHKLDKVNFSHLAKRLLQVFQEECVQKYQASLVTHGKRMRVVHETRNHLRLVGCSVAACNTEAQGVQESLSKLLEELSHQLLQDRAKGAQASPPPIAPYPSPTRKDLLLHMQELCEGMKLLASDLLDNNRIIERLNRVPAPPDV
In short: (§1)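 His-tagged Sf9-expressed kinases at 0.1 or 0.02 μg/ml (TBK1) and 0.1 or 0.015 μg/ml (IKKε) for normal and sensitized formats, with myelin basic protein or casein substrate. ATP was at 2×Km (60 μM TBK1, 32 μM IKKε) plus 0.3 μCi [γ33]ATP. Reactions ran 30-45 min, were captured on P-81 filters, and counts were normalized to DMSO.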

[2] = molecular target: T2, TBK1 (Homo sapiens, UniProt Q9UHD2); assay: In-vitro TBK1 kinase assay ([γ33]ATP filter-plate); format: biochemical; details: text bins; read-out: IC50 for inhibition of the kinase activity of TBK1
T2 construct: His-tag; made in house; host or cells: Sf9 insect cells
T2 sequence (Q9UHD2 1-729): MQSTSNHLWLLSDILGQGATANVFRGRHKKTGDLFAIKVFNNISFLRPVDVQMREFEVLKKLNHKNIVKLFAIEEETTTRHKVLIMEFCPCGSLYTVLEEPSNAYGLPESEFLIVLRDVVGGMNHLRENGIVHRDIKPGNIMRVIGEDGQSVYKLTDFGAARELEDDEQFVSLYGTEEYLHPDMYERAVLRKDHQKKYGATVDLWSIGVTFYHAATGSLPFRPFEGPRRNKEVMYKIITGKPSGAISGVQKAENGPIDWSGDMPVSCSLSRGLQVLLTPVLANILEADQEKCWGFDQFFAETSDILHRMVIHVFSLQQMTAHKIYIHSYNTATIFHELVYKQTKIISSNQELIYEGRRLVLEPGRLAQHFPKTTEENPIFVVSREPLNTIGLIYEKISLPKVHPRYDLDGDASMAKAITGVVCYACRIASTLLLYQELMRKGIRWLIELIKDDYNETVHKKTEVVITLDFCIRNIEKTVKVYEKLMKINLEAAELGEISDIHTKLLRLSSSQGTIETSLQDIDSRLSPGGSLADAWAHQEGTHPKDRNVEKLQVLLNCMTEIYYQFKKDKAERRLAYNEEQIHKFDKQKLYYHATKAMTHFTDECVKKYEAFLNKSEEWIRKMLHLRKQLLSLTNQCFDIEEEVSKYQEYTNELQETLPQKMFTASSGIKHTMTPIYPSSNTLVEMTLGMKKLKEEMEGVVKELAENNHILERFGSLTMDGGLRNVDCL
In short: as §1

Row | IC50 [1] [nM] | IC50 [2] [nM] | Compound
1 | 5 to 50 | 10 to 100 | COc1ccc(-c2ccnc(Nc3ccc(S(=O)(=O)NCCN)c(OC)c3)n2)cc1C#N [compound 366, N-(2-Aminoethyl)-4-{[4-(3-cyano-4-methoxyphenyl)pyrimidin-2-yl]amino}-2-methoxybenzene-sulfonamide]
2 | 5 to 50 | 10 to 100 | COc1ccc(-c2ccnc(Nc3cccc(CN(C)CC(=O)N(C)C)c3)n2)cc1C#N [Example 67, N~2~-(3-{[4-(3-Cyano-4-methoxyphenyl)pyrimidin-2-yl]amino}benzyl)-N,N,N~2~- trimethylglycinamide]
3 | < 5 | < 10 | COc1cc(Nc2nccc(-c3ccc(OC4CCN(C(=O)[C@H](C)O)CC4)c(C#N)c3)n2)ccc1C(=O)NCCCN(C)C [compound 376, 4-({4-[3-cyano-4-({1-[(2S)-2-hydroxypropanoyl]piperidin-4-yl}oxy)phenyl]pyrimidin-2-yl}amino)-N-[3-(dimethylamino)propyl]-2-methoxybenzamide]
4 | 5 to 50 | 10 to 100 | COc1ccc(Nc2nccc(-c3cc(Cl)cc(C#N)c3)n2)cc1OC [Example 248, 3-Chloro-5-{2-[(3,4-dimethoxyphenyl)amino]pyrimidin-4-yl}benzonitrile]
5 | < 5 | < 10 | CNS(=O)(=O)Cc1ccc(Nc2nccc(-c3ccc(OCC(C)C)c(C#N)c3)n2)cc1 [compound 606, 1-[4-({4-[3-Cyano-4-(2-methylpropoxy)phenyl]pyrimidin-2-yl}amino)phenyl]-N-methylmethane-sulfonamide]
6 | < 5 | < 10 | COC1CN(c2cc(Nc3nccc(-c4ccc(OC5CCOCC5)c(C#N)c4)n3)ccc2C)C1 [compound 572, 5-(2-{[3-(3-Methoxyazetidin-1-yl)-4-methylphenyl]amino}pyrimidin-4-yl)-2-(tetrahydro-2H-pyran-4-yloxy)benzonitrile]
7 | < 5 | < 10 | COc1ccc(-c2ccnc(Nc3ccc(N4CCN(C)C(=O)C4)c(OC)c3)n2)cc1C#N [Example 124]
8 | 5 to 50 | 10 to 100 | N#Cc1cc(-c2ccnc(Nc3ccccc3)n2)ccc1OC1CCOCC1 [Example 12]
9 | 5 to 50 | 10 to 100 | COc1ccc(-c2ccnc(Nc3cccc(NC(C)=O)c3)n2)cc1C#N [Example 70, N-(3-{[4-(3-Cyano-4-methoxyphenyl)pyrimidin-2-yl]amino}phenyl) acetamide]
10 | 5 to 50 | < 10 | CCC(C)C(=O)Nc1ccc(-c2ccnc(Nc3ccc(N4CCOCC4)cc3)n2)cc1C#N (stereo not shown) [compound 417, N-[2-cyano-4-(2-{[4-(morpholin-4-yl)phenyl]amino}pyrimidin-4-yl)phenyl]-2-methylbutanamide]
11 | < 5 | < 10 | CS(=O)(=O)N1CCC(Oc2ccc(-c3ccnc(Nc4ccc(N5CCOCC5)cc4)n3)cc2C#N)CC1 [Example 246, 2-{[1-(Methylsulfonyl)piperidin-4-yl]oxy}-5-(2-{[4-(morpholin-4-yl)phenyl]amino}pyrimidin-4-yl)benzonitrile]
12 | < 5 | < 10 | C[C@H](O)C(=O)N1CCC(Oc2ccc(-c3ccnc(Nc4ccc(C(=O)NCCN(C)C)cc4)n3)cc2C#N)CC1 [compound 367, 4-({4-[3-cyano-4-({1-[(2S)-2-hydroxypropanoyl]piperidin-4-yl}oxy)phenyl]pyrimidin-2-yl}amino)-N-[2-(dimethylamino)ethyl]benzamide]
13 | 50 to 500 | 100 to 500 | CCOc1cccc(Nc2nccc(-c3cccc(C#N)c3)n2)c1 [Example 276, 3-{2-[(3-Ethoxyphenyl)amino]pyrimidin-4-yl}benzonitrile]
14 | 5 to 50 | 10 to 100 | COc1cc(Nc2nccc(-c3ccc(OC)c(C#N)c3)n2)cc(OCCN2CCOCC2)c1 [Example 138, 2-Methoxy-5-[2-({3-methoxy-5-[2-(morpholin-4-yl)ethoxy]phenyl}amino)pyrimidin-4-yl]benzonitrile]
15 | < 5 | < 10 | N#Cc1cc(-c2ccnc(Nc3ccc(F)c(OCC(O)CO)c3)n2)ccc1OC1CCOCC1 (stereo not shown) [compound 608, 5-(2-{[3-(2,3-Dihydroxypropoxy)-4-fluorophenyl]amino}pyrimidin-4-yl)-2-(tetrahydro-2H-pyran-4-yloxy)benzonitrile]
16 | 5 to 50 | < 10 | COc1cc(Nc2nccc(-c3ccc(OCCO)c(C#N)c3)n2)ccc1N1CCNC(=O)C1 [compound 296, 2-(2-Hydroxyethoxy)-5-(2-{[3-methoxy-4-(3-oxopiperazin-1-yl)phenyl]amino}pyrimidin-4-yl)benzonitrile]
17 | < 5 | < 10 | CS(=O)(=O)N1CCC(Nc2ccc(Nc3nccc(-c4ccc(OC5CCOCC5)c(C#N)c4)n3)cc2)CC1 [Example 171, 5-{2-[(4-{[1-(methylsulfonyl)piperidin-4-yl]amino}phenyl)amino]pyrimidin-4-yl}-2-(tetrahydro-2H-pyran-4-yloxy)benzonitrile]
18 | 5 to 50 | < 10 | N#Cc1cc(-c2ccnc(Nc3ccc(N4CCOCC4)cc3)n2)ccc1OCC1CCN(C(=O)CO)CC1 [Example 233, 2-{[1-(hydroxyacetyl)piperidin-4-yl]methoxy}-5-(2-{[4-(morpholin-4-yl)phenyl]amino}pyrimidin-4-yl)benzonitrile]
19 | < 5 | < 10 | CC(C)(C)Oc1ccc(-c2ccnc(Nc3ccc(N4CCOCC4)cc3)n2)cc1C#N [Example 164, 2-tert-Butyoxy-5-(2-{[4-(morpholin-4-yl)phenyl]amino}pyrimidin-4-yl)benzonitrile]
20 | 50 to 500 | 100 to 500 | N#Cc1cccc(-c2ccnc(Nc3ccc(N)cc3)n2)c1 [Example 55, 3-{2-[(4-Aminophenyl)amino]pyrimidin-4-yl}benzonitrile]
21 | 5 to 50 | < 10 | COc1ccc(-c2ccnc(Nc3cc(CN4CCNC(=O)C4)c(OC)c(OC)c3)n2)cc1C#N [Example 110, 5-[2-({3,4-Dimethoxy-5-[(3-oxopiperazin-1-yl)methyl]phenyl}amino)pyrimidin-4-yl]-2-methoxybenzonitrile]
22 | 5 to 50 | < 10 | N#Cc1cc(-c2ccnc(Nc3ccc(N4CCOCC4)cc3)n2)ccc1OC1CCN(C(=O)CCO)CC1 [Example 215, 2-{[1-(3-Hydroxypropanoyl)piperidin-4-yl]oxy}-5-(2-{[4-(morpholin-4-yl)phenyl]amino}pyrimidin-4-yl)benzonitrile]
23 | < 5 | < 10 | COc1cc(Nc2nccc(-c3ccc(OC4CCOCC4)c(C#N)c3)n2)ccc1S(=O)(=O)NCCCN(C)C [Example 237, 4-({4-[3-cyano-4-(tetrahydro-2H-pyran-4-yloxy)phenyl]pyrimidin-2-yl}amino)-N-[3-(dimethylamino)propyl]-2-methoxybenzene-sulfonamide]
24 | < 5 | < 10 | N#Cc1cc(-c2ccnc(Nc3ccc(N4CCOCC4)cc3)n2)ccc1OCC1CCOCC1 [Example 158, 5-(2-{[4-(morpholin-4-yl)phenyl]amino}pyrimidin-4-yl)-2-(tetrahydro-2H-pyran-4-ylmethoxy) benzonitrile]
25 | < 5 | < 10 | COCCNCc1ccc(Nc2nccc(-c3ccc(OCC4CC4)c(C#N)c3)n2)cc1 [compound 581, 2-(Cyclopropylmethoxy)-5-{2-[(4-{[(2-methoxyethyl)amino]methyl}phenyl)amino]pyrimidin-4-yl}benzonitrile]

Row | Compound | IC50 [1] [nM] | IC50 [2] [nM]
26 | COc1ccc(Nc2nccc(-c3ccc(OC(C)(C)C)c(C#N)c3)n2)cc1OC [Example 169, 2-tert-Butoxy-5-{2-[(3,4-dimethoxyphenyl)amino]pyrimidin-4-yl}benzonitrile] | 5 to 50 | 10 to 100
